Results from PubChem BioAssay AID330 (DTP/NCI, 2004).
Where “and” joins values, the source holds several entries; their conditions need not be identical. Identical values can stand only once. Toxic doses and inconclusive results are not listed.

Test system: P388 leukemia ip, CD2F1 mice, survival T/C
Assay: NCI In Vivo Anticancer Drug Screen. Data for tumor model P388 Leukemia (intraperitoneal) in CD2F1 (CDF1) mice
Conditions: endpoint: median survival time, higher = longer survival
Summary of the method: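 Mice carrying the transplanted tumor received test compound or vehicle. Survival was recorded in each group, and the value is the treated-group measurement divided by that of the vehicle-treated control group.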

[1] = dose: 240.0 mg/kg/injection, schedule: Q01DX005 (ip), vehicle: saline with Tween-80
[2] = dose: 50.0 mg/kg/injection, schedule: Q01DX005 (ip), vehicle: Klucel (hydroxypropylcellulose) (HPC)
[3] = dose: 100.0 mg/kg/injection, schedule: Q01DX005 (ip), vehicle: Klucel (hydroxypropylcellulose) (HPC)
[4] = dose: 200.0 mg/kg/injection, schedule: Q01DX005 (ip), vehicle: Klucel (hydroxypropylcellulose) (HPC)
[5] = dose: 25.0 mg/kg/injection, schedule: Q01DX005 (ip), vehicle: Klucel (hydroxypropylcellulose) (HPC)

For `O=C(CN1CC1)NCCCCCCCCCNC(=O)CN1CC1`, the T/C (dose: 2.5 mg/kg/injection, schedule: Q01DX009 (ip), vehicle: saline with Tween-80) was 90 % of control, the T/C (dose: 5.0 mg/kg/injection, schedule: Q01DX009 (ip), vehicle: saline with Tween-80) was 150 % of control and the T/C (dose: 10.0 mg/kg/injection, schedule: Q01DX009 (ip), vehicle: saline with Tween-80) was 186 % of control.

In the case of `NC(Cc1ccccc1)C(=O)CCl` (centres undefined), the T/C (dose: 12.5 mg/kg/injection, schedule: Q01DX001 (ip), vehicle: saline) is reported as 104 % of control and the T/C (dose: 25.0 mg/kg/injection, schedule: Q01DX001 (ip), vehicle: saline) is reported as 100 % of control.

In the case of `NC(Cc1c[nH]c2ccccc12)C(=O)NCCS(=O)(=O)O` (centres undefined), the T/C (dose: 60.0 mg/kg/injection, schedule: Q01DX005 (ip), vehicle: saline with Tween-80) is reported as 102 % of control, the T/C (dose: 120.0 mg/kg/injection, schedule: Q01DX005 (ip), vehicle: saline with Tween-80) is reported as 104 % of control and the T/C [1] is reported as 99 % of control.

`C=C1C(=O)OC2C(OC(=O)C(C)C)CCCC12` (centres undefined) was tested, and the T/C (dose: 60.0 mg/kg/injection, schedule: Q01DX005 (ip), vehicle: Klucel (hydroxypropylcellulose) (HPC)) was 105 % of control, the T/C (dose: 120.0 mg/kg/injection, schedule: Q01DX005 (ip), vehicle: Klucel (hydroxypropylcellulose) (HPC)) was 100 % of control and the T/C (dose: 240.0 mg/kg/injection, schedule: Q01DX005 (ip), vehicle: Klucel (hydroxypropylcellulose) (HPC)) was 102 % of control.

`CC(Cc1cccc2ccccc12)C(N)=O` (centres undefined) was tested, and the T/C [2] was 100 % of control, the T/C [3] was 99 % of control and the T/C [4] was 99 % of control.

`NC(=S)c1ccc2ccccc2c1` was tested, and the T/C [2] was 100 % of control, the T/C [3] was 100 % of control and the T/C [4] was 100 % of control.

With `C=C(C1=CC(=O)C(C)=C(OC)C1=O)C(CC=C(C)C)OC(=O)/C(C)=C/C` (centres undefined) the T/C (dose: 1.56 mg/kg/injection, schedule: Q01DX005 (ip), vehicle: Klucel (hydroxypropylcellulose) (HPC)) was 92 % of control, the T/C (dose: 3.12 mg/kg/injection, schedule: Q01DX005 (ip), vehicle: Klucel (hydroxypropylcellulose) (HPC)) was 99 % of control and the T/C (dose: 6.25 mg/kg/injection, schedule: Q01DX005 (ip), vehicle: Klucel (hydroxypropylcellulose) (HPC)) was 101 % of control. For the same compound, the T/C (dose: 12.5 mg/kg/injection, schedule: Q01DX005 (ip), vehicle: Klucel (hydroxypropylcellulose) (HPC)) was 96 % of control and the T/C [5] was 102 % of control.

`COc1cc(OC)c(/C=N/NC(=S)NC23CC4CC(CC(C4)C2)C3)c(OC)c1` was tested, and the T/C (dose: 15.0 mg/kg/injection, schedule: Q01DX005 (ip), vehicle: saline with Tween-80) was 94 % of control, the T/C (dose: 30.0 mg/kg/injection, schedule: Q01DX005 (ip), vehicle: saline with Tween-80) was 97 % of control and the T/C [1] was 89 % of control.

In the case of `CCOC(=O)c1nn(C)c2oc(=O)ccc12`, the T/C [5] is reported as 106 % of control, the T/C [2] is reported as 108 % of control and the T/C [3] is reported as 104 % of control. For the same compound, the T/C [4] was 104 % of control.

With `Cc1cc(C)nc(NN=O)c1` the T/C (dose: 3.12 mg/kg/injection, schedule: Q01DX009 (ip), vehicle: water) was 104 % of control and 112 % of control, the T/C (dose: 6.25 mg/kg/injection, schedule: Q01DX009 (ip), vehicle: water) was 121 % of control and the T/C (dose: 12.5 mg/kg/injection, schedule: Q01DX009 (ip), vehicle: water) was 121 % of control. The T/C (dose: 50.0 mg/kg/injection, schedule: Q01DX009 (ip), vehicle: water) was 95 % of control.

With `CC(=O)NC(C(=O)N1CCCC1)=C(C)C` the T/C (dose: 100.0 mg/kg/injection, schedule: Q04DX002 (ip), vehicle: saline) was 100 % of control, the T/C (dose: 200.0 mg/kg/injection, schedule: Q04DX002 (ip), vehicle: saline) was 98 % of control and the T/C (dose: 400.0 mg/kg/injection, schedule: Q04DX002 (ip), vehicle: saline) was 107 % of control.

In the case of `CNC(=O)OCc1c(COC(=O)NC)c(-c2ccc(Cl)c(Cl)c2)n2c1Cc1ccccc1C2`, the T/C (dose: 25.0 mg/kg/injection, schedule: Q01DX009 (ip), vehicle: distilled water + Tween-80) is reported as 153 % of control and 160 % of control, the T/C (dose: 50.0 mg/kg/injection, schedule: Q01DX009 (ip), vehicle: distilled water + Tween-80) is reported as 155 % of control and 195 % of control and the T/C (dose: 100.0 mg/kg/injection, schedule: Q01DX009 (ip), vehicle: distilled water + Tween-80) is reported as 171 % of control and 189 % of control. For the same compound, the T/C (dose: 200.0 mg/kg/injection, schedule: Q01DX009 (ip), vehicle: distilled water + Tween-80) was 117 % of control and 97 % of control.

In the case of `CCOS(=O)(=O)CS(C)(=O)=O`, the T/C (dose: 25.0 mg/kg/injection, schedule: Q01DX005 (ip), vehicle: saline) is reported as 118 % of control, the T/C (dose: 50.0 mg/kg/injection, schedule: Q01DX005 (ip), vehicle: saline) is reported as 118 % of control and the T/C (dose: 100.0 mg/kg/injection, schedule: Q01DX005 (ip), vehicle: saline) is reported as 160 % of control and 170 % of control. The T/C (dose: 150.0 mg/kg/injection, schedule: Q01DX005 (ip), vehicle: saline) was 104 % of control.
